Values of other authors, collected in patent US5395974A, “Lewis acid catalyzed ammonolysis of nylon” (E. I. Du Pont de Nemours and Company, priority 1994, dated 1995).

Conditions: values in square brackets in the text

In the case of `O=C(O)C(F)(F)F` [CF3 CO2 --], the “pKa of the conjugate acid of the anion” value is given as 0.2.
